# Data published in PubChem BioAssay AID248 (DTP/NCI, 2004).
# Values joined by “and” are separate entries in the source; they are usually repeats but may differ in a detail not shown here. Equal values may be shown once. Inconclusive results and toxic doses are left out.
# System: L1210 leukemia ip in BDF1 mice, survival T/C
# Test: NCI In Vivo Anticancer Drug Screen. Data for tumor model L1210 Leukemia (intraperitoneal) in B6D2F1 (BDF1) mice
# Conditions: endpoint: mean survival time, higher = longer survival
# Method in brief: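 Read-out is survival time, reported as the treated-group measurement over the vehicle-control measurement.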
# [1] = dose: 25.0 mg/kg/injection, schedule: Q01DX009 (ip), vehicle: saline
# [2] = dose: 100.0 mg/kg/injection, schedule: Q01DX001 (ip), vehicle: other
# [3] = dose: 200.0 mg/kg/injection, schedule: Q01DX001 (ip), vehicle: other
# [4] = dose: 400.0 mg/kg/injection, schedule: Q01DX001 (ip), vehicle: other
# [5] = dose: 50.0 mg/kg/injection, schedule: Q01DX009 (ip), vehicle: saline with Tween-80
smiles,measurement,setting,value
ICc1ccc(CI)cc1,T/C,[1],100 % of control
same,T/C,[2],106 % of control
same,T/C,"dose: 100.0 mg/kg/injection, schedule: Q04DX003 (ip), vehicle: acetone",106 % of control
same,T/C,[3],88 % of control
same,T/C,[4],88 % of control
O=c1cc(COc2ccc(O)cc2)[nH]c(=O)[nH]1,T/C,"dose: 100.0 mg/kg/injection, schedule: Q04DX003 (ip), vehicle: saline",101 % of control
same,T/C,"dose: 200.0 mg/kg/injection, schedule: Q04DX003 (ip), vehicle: saline",104 % of control
same,T/C,"dose: 400.0 mg/kg/injection, schedule: Q04DX003 (ip), vehicle: saline",89 % of control
CNCCC=C1c2ccccc2CCc2ccccc21,T/C,"dose: 3.12 mg/kg/injection, schedule: Q01DX009 (ip), vehicle: saline",101 % of control
same,T/C,"dose: 6.25 mg/kg/injection, schedule: Q01DX009 (ip), vehicle: saline",101 % of control
same,T/C,"dose: 12.5 mg/kg/injection, schedule: Q01DX009 (ip), vehicle: saline",106 % of control
same,T/C,[1],106 % of control
same,T/C,"dose: 25.0 mg/kg/injection, schedule: Q04DX003 (ip), vehicle: saline",96 % of control
same,T/C,"dose: 50.0 mg/kg/injection, schedule: Q01DX009 (ip), vehicle: saline",117 % of control
same,T/C,"dose: 50.0 mg/kg/injection, schedule: Q04DX003 (ip), vehicle: saline",96 % of control
CC(=O)Nc1ccc(/C=N/NC(=O)CNC(=O)Nc2cccc(Cl)c2)cc1,T/C,"dose: 12.5 mg/kg/injection, schedule: Q01DX009 (ip), vehicle: saline with Tween-80",95 % of control
same,T/C,"dose: 25.0 mg/kg/injection, schedule: Q01DX009 (ip), vehicle: saline with Tween-80",95 % of control
same,T/C,[5],87 % of control and 91 % of control
CCC[CH2][Hg][O]C(C)=O,T/C,"dose: 3.13 mg/kg/injection, schedule: Q01DX009 (ip), vehicle: saline sonified",89 % of control
same,T/C,"dose: 6.25 mg/kg/injection, schedule: Q01DX009 (ip), vehicle: saline sonified",89 % of control
same,T/C,"dose: 6.25 mg/kg/injection, schedule: Q04DX003 (ip), vehicle: Klucel (hydroxypropylcellulose) (HPC)",100 % of control
same,T/C,"dose: 12.5 mg/kg/injection, schedule: Q01DX009 (ip), vehicle: saline sonified",87 % of control
same,T/C,"dose: 12.5 mg/kg/injection, schedule: Q04DX003 (ip), vehicle: Klucel (hydroxypropylcellulose) (HPC)",92 % of control
Cc1cn2c(nc1=O)OC1CC2OC1CO (configuration not stated),T/C,"dose: 100.0 mg/kg/injection, schedule: Q01DX005 (ip), vehicle: saline",122 % of control
same,T/C,"dose: 200.0 mg/kg/injection, schedule: Q01DX005 (ip), vehicle: saline",152 % of control
Cc1ccc(C)c(N2CCN(c3ccncc3N)CC2)c1,T/C,"dose: 75.0 mg/kg/injection, schedule: Q01DX001 (ip), vehicle: saline with Tween-80",98 % of control
same,T/C,"dose: 75.0 mg/kg/injection, schedule: Q01DX009 (ip), vehicle: saline with Tween-80",95 % of control
same,T/C,"dose: 150.0 mg/kg/injection, schedule: Q01DX001 (ip), vehicle: saline with Tween-80",93 % of control
same,T/C,"dose: 150.0 mg/kg/injection, schedule: Q01DX009 (ip), vehicle: saline with Tween-80",102 % of control
same,T/C,"dose: 300.0 mg/kg/injection, schedule: Q01DX001 (ip), vehicle: saline with Tween-80",101 % of control
O=[N+]([O-])c1cccc2cncc(Br)c12,T/C,[2],95 % of control
same,T/C,[3],106 % of control
same,T/C,[4],104 % of control
C=CCCCCCCCCC(=O)NC(C)COC (configuration not stated),T/C,[5],103 % of control
same,T/C,"dose: 100.0 mg/kg/injection, schedule: Q01DX009 (ip), vehicle: saline with Tween-80",103 % of control
same,T/C,"dose: 200.0 mg/kg/injection, schedule: Q01DX009 (ip), vehicle: saline with Tween-80",100 % of control
C=CC(C)(C)c1c2c(c(O)c3c(=O)c4ccc(O)c(O)c4oc13)C=CC(C)(C)O2,T/C,"dose: 100.0 mg/kg/injection, schedule: Q01DX001 (ip), vehicle: carboxymethylcellulose (CMC)",95 % of control
same,T/C,"dose: 200.0 mg/kg/injection, schedule: Q01DX001 (ip), vehicle: carboxymethylcellulose (CMC)",92 % of control
same,T/C,"dose: 400.0 mg/kg/injection, schedule: Q01DX001 (ip), vehicle: carboxymethylcellulose (CMC)",95 % of control
CN(O)CC(=O)O,T/C,"dose: 100.0 mg/kg/injection, schedule: Q01DX001 (ip), vehicle: saline",95 % of control
same,T/C,"dose: 200.0 mg/kg/injection, schedule: Q01DX001 (ip), vehicle: saline",98 % of control
same,T/C,"dose: 400.0 mg/kg/injection, schedule: Q01DX001 (ip), vehicle: saline",97 % of control
